Test results reported in US6949536B2, “Sulfonylbenzene compounds as anti-inflammatory/analgesic agents” (Pfizer, Inc., priority 1998, dated 2005).
Counter-ions that a name gives are not always drawn.

SMILES	melting point [°C]
CS(=O)(=O)c1ccc(-n2nc(C(F)(F)F)cc2-c2ccc(-c3cnco3)cc2)cc1 (as salt: hydrochloride) [Example 76, 1-[4-(Methylsulfonyl)phenyl]-5-[4-(5-oxazolyl)phenyl]-3-(trifluoromethyl)-1H-pyrazole]	178 to 180
CS(=O)(=O)c1ccc(-n2nc(C(F)(F)F)cc2-c2ccc(-c3cocn3)cc2)cc1 (as salt: hydrochloride) [Example 95, 4-{4-[1-[4-(Methylsulfonyl)phenyl]-3-(trifluoromethyl)-1H-pyrazol-5-yl]phenyl}-1,3-oxazole]	175 to 177
NS(=O)(=O)c1ccc(-n2nc(C(F)(F)F)cc2-c2ccc(-c3ncco3)cc2)cc1 (as salt: hydrochloride) [Example 98, 4-[5-[4-(1,3-Oxazol-2-yl)phenyl]-3-(trifluoromethyl)-1H-pyrazol-1-yl]benzenesulfonamide]	215 to 217
NS(=O)(=O)c1ccc(-n2nc(C(F)(F)F)cc2-c2ccc(-c3cscn3)cc2)cc1 (as salt: hydrochloride) [Example 100, 4-[5-[4-(1,3-Thiazol-4-yl)phenyl]-3-(trifluoromethyl)-1H-pyrazol-1-yl]benzenesulfonamide]	188 to 190
Cc1cc(-n2nc(C(F)(F)F)cc2-c2ccc(-c3cscn3)cc2)ccc1S(C)(=O)=O (as salt: hydrochloride) [Example 101, 4-{4-[1-[3-Methyl-4-(methylsulfonyl)phenyl]-3-(trifluoromethyl)-1H-pyrazol-5-yl]phenyl}-1,3-thiazole]	147 to 149
NS(=O)(=O)c1ccc(-n2nc(C(F)(F)F)cc2-c2ccc(-c3cscn3)cc2)cc1F (as salt: hydrochloride) [Example 103, 2-Fluoro-4-[5-[4-(1,3-thiazol-4-yl)phenyl]-3-(trifluoromethyl)-1H-pyrazol-1-yl]benzenesulfonamide]	168 to 170
COc1cc(-c2cc(C(F)(F)F)nn2-c2ccc(S(C)(=O)=O)cc2)ccc1-c1cocn1 (as salt: hydrochloride) [Example 111, 4-{2-Methoxy-4-[1-[4-(methylsulfonyl)phenyl]-3-(trifluoromethyl)-1H-pyrazol-5-yl]phenyl}-1,3-oxazole]	171 to 173
Cc1cc(-c2cc(C(F)(F)F)nn2-c2ccc(S(N)(=O)=O)c(F)c2)ccc1-c1cscn1 (as salt: hydrochloride) [Example 113, 2-Fluoro-4-[5-[3-methyl-4-(1,3-thiazol-4-yl)phenyl]-3-(trifluoromethyl)-1H-pyrazol-1-yl]benzenesulfonamide]	125 to 127
NS(=O)(=O)c1ccc(-n2nc(C(F)(F)F)cc2-c2ccc(-c3cscn3)c(F)c2)cc1F (as salt: hydrochloride) [Example 114, 2-Fluoro-4-[5-[3-fluoro-4-(1,3-thiazol-4-yl)phenyl]-3-(trifluoromethyl)-1H-pyrazol-1-yl]benzenesulfonamide]	196 to 198
Cc1cc(-c2cc(C(F)(F)F)nn2-c2ccc(S(N)(=O)=O)cc2)ccc1-c1cocn1 (as salt: hydrochloride) [Example 116, 4-[5-[3-Methyl-4-(1,3-oxazol-4-yl)phenyl]-3-(trifluoromethyl)-1H-pyrazol-1-yl]benzenesulfonamide]	112 to 114
NS(=O)(=O)c1ccc(-n2nc(C(F)(F)F)cc2-c2ccc(-c3cocn3)cc2)cc1 (as salt: hydrochloride) [Example 118, 4-[5-[4-(1,3-Oxazol-4-yl)phenyl]-3-(trifluoromethyl)-1H-pyrazol-1-yl]benzenesulfonamide]	170 to 172
CS(=O)(=O)c1ccc(-n2nc(C(F)(F)F)cc2-c2ccc(-c3cscn3)c(Cl)c2)cc1 (as salt: hydrochloride) [Example 119, 4-{2-Chloro-4-[1-[4-(methylsulfonyl)phenyl]-3-(trifluoromethyl)-1H-pyrazol-5-yl]phenyl}-1,3-thiazole]	128 to 130
COc1cc(-c2cc(C(F)(F)F)nn2-c2ccc(S(C)(=O)=O)cc2)ccc1-c1cscn1 (as salt: hydrochloride) [Example 120, 4-{2-Methoxy-4-[1-[4-(methylsulfonyl)phenyl]-3-(trifluoromethyl)-1H-pyrazol-5-yl]phenyl}-1,3-thiazole]	164 to 166
NS(=O)(=O)c1ccc(-n2nc(C(F)(F)F)cc2-c2ccc(-c3cscn3)c(Cl)c2)cc1F (as salt: hydrochloride) [Example 122, 2-Fluoro-4-[5-[3-chloro-4-(1,3-thiazol-4-yl)phenyl]-3-(trifluoromethyl)-1H-pyrazol-1-yl]benzenesulfonamide]	173 to 175
CS(=O)(=O)c1ccc(-n2nc(C(F)(F)F)cc2-c2ccc(-c3cscn3)c(F)c2)cc1 (as salt: hydrochloride) [Example 124, 4-{2-Fluoro-4-[1-[4-(methylsulfonyl)phenyl]-3-(trifluoromethyl)-1H-pyrazol-5-yl]phenyl}-1,3-thiazole]	176 to 178
CN(C)C(=O)c1cc(-c2ccc(-c3ccco3)cc2)n(-c2ccc(S(C)(=O)=O)c(F)c2)n1 (as salt: hydrochloride) [Example 133, N,N-Dimethyl-1-[3-fluoro-4-(methylsulfonyl)phenyl]-5-[4-(2-furyl)phenyl]-1H-pyrazole-3-carboxamide]	167 to 168
CONC(=O)c1cc(-c2ccc(-c3ccco3)cc2)n(-c2ccc(S(C)(=O)=O)c(F)c2)n1 (as salt: hydrochloride) [Example 134, N-Methoxy-1-[3-fluoro-4-(methylsulfonyl)phenyl]-5-[4-(2-furyl)phenyl]-1H-pyrazole-3-carboxamide]	126 to 128
CS(=O)(=O)c1ccc(-n2nc(C(F)(F)F)cc2-c2ccc(-c3ccco3)cc2)cc1C(F)(F)F (as salt: hydrochloride) [Example 135, 5-[4-(2-Furyl)phenyl]-1-[4-(methylsulfonyl)-3-(trifluoromethyl)phenyl]-3-trifluoromethyl-1H-pyrazole]	159 to 160
NS(=O)(=O)c1ccc(-n2nc(C(F)(F)F)cc2-c2ccc(-c3ccco3)cc2)cc1F (as salt: hydrochloride) [Example 137, 2-Fluoro-4-[5-[4-(2-furyl)phenyl]-3-(trifluoromethyl)-1H-pyrazol-1-yl]benzenesulfonamide]	151
NS(=O)(=O)c1ccc(-n2nc(C(F)(F)F)cc2-c2ccc(-c3ccco3)cc2)c(Cl)c1 (as salt: hydrochloride) [Example 140, 3-Chloro-4-[5-[4-(2-furyl)phenyl]-3-(trifluoromethyl)-1H-pyrazol-1-yl]benzenesulfonamide]	190.3
NS(=O)(=O)c1ccc(-n2nc(C(F)(F)F)cc2-c2ccc(-c3ccco3)cc2)c(F)c1 (as salt: hydrochloride) [Example 141, 3-Fluoro-4-[5-[4-(2-furyl)phenyl]-3-(trifluoromethyl)-1H-pyrazol-1-yl]benzenesulfonamide]	174.4

Next, values leading:

melting point [°C]	SMILES
174 to 176	Cc1cc(-c2cc(C(F)(F)F)nn2-c2ccc(S(C)(=O)=O)cc2)ccc1-c1ccco1 (as salt: hydrochloride) [Example 31, 1-[4-(Methylsulfonyl)phenyl]-5-[4-(2-furyl)-3-methylphenyl]-3-(trifluoromethyl)-1H-pyrazole]
143 to 145	CS(=O)(=O)c1ccc(-n2nc(C(F)(F)F)cc2-c2ccc(-c3ccco3)c(Cl)c2)cc1 (as salt: hydrochloride) [Example 71, 1-[4-(Methylsulfonyl)phenyl]-5-[3-chloro-4-(2-furyl)phenyl]-3-(trifluoromethyl)-1H-pyrazole]
175 to 177	Cc1cc(-c2ccco2)ccc1-c1cc(C(F)(F)F)nn1-c1ccc(S(C)(=O)=O)cc1 (as salt: hydrochloride) [Example 78, 1-[4-(Methylsulfonyl)phenyl]-5-[4-(2-furyl)-2-methylphenyl]-3-(trifluoromethyl)-1H-pyrazole]
138 to 140	COc1cc(-c2cc(C(F)(F)F)nn2-c2ccc(S(C)(=O)=O)cc2)ccc1-c1ccco1 (as salt: hydrochloride) [Example 81, 1-[4-(Methylsulfonyl)phenyl]-5-[4-(2-furyl)-3-methoxyphenyl]-3-(trifluoromethyl)-1H-pyrazole]
190 to 192	CS(=O)(=O)c1ccc(-n2nc(C(F)(F)F)cc2-c2ccc(-c3ncco3)cc2)cc1 (as salt: hydrochloride) [Example 97, 2-{4-[1-[4-(Methylsulfonyl)phenyl]-3-(trifluoromethyl)-1H-pyrazol-5-yl]phenyl}-1,3-oxazole]
148 to 150	Cc1cc(-c2cc(C(F)(F)F)nn2-c2ccc(S(C)(=O)=O)cc2)ccc1-c1cocn1 (as salt: hydrochloride) [Example 112, 4-{2-Methyl-4-[1-[4-(methylsulfonyl)phenyl]-3-(trifluoromethyl)-1H-pyrazol-5-yl]phenyl}-1,3-oxazole]
140 to 142	Cc1cc(-c2cc(C(F)(F)F)nn2-c2ccc(S(C)(=O)=O)cc2)ccc1-c1cscn1 (as salt: hydrochloride) [Example 125, 4-{2-Methyl-4-[1-[4-(methylsulfonyl)phenyl]-3-(trifluoromethyl)-1H-pyrazol-5-yl]phenyl}-1,3-thiazole]
138.9	COc1cc(-n2nc(C(F)(F)F)cc2-c2ccc(-c3ccco3)cc2)ccc1S(C)(=O)=O (as salt: hydrochloride) [Example 136, 5-[4-(2-Furyl)phenyl]-1-[3-methoxy-4-(methylsulfonyl)phenyl]-3-trifluoromethyl-1H-pyrazole]
205	Cc1cc(S(C)(=O)=O)ccc1-n1nc(C(F)(F)F)cc1-c1ccc(-c2ccco2)cc1 (as salt: hydrochloride) [Example 142, 5-[4-(2-Furyl)phenyl]-1-[4-(methylsulfonyl)-2-methylphenyl]-3-trifluoromethyl-1H-pyrazole]
137.4	Cc1cc(-n2nc(C(F)(F)F)cc2-c2ccc(-c3ccco3)cc2)ccc1S(N)(=O)=O (as salt: hydrochloride) [Example 143, 4-[5-[4-(2-Furyl)phenyl]-3-(trifluoromethyl)-1H-pyrazol-1-yl]-2-methylbenzenesulfonamide]
